Source: PubChem BioAssay (NCI)
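Test compounds were applied to cells in 96-well plates for 48 hours at 5 doses. At the TGI there is no net growth.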

Experiments:
Test in all cases: NCI-60 cell line screen, 48 h
CAKI-1 renal = tested on: CAKI-1 renal
HOP-92 NSCLC = tested on: HOP-92 NSCLC
MDA-MB-231 breast = tested on: MDA-MB-231 breast
HCT-15 colon = tested on: HCT-15 colon
UO-31 renal = tested on: UO-31 renal
M14 melanoma = tested on: M14 melanoma
NCI-H23 lung = tested on: NCI-H23 lung
SR leukemia = tested on: SR leukemia
PC-3 prostate = tested on: PC-3 prostate
SK-MEL-2 melanoma = tested on: SK-MEL-2 melanoma
OVCAR-3 ovarian = tested on: OVCAR-3 ovarian
SF-295 CNS = tested on: SF-295 CNS
ACHN renal = tested on: ACHN renal
DU-145 prostate = tested on: DU-145 prostate
SF-539 CNS = tested on: SF-539 CNS
SNB-19 CNS = tested on: SNB-19 CNS
MALME-3M melanoma = tested on: MALME-3M melanoma
HCT-116 colon = tested on: HCT-116 colon
SNB-75 CNS = tested on: SNB-75 CNS
T-47D breast = tested on: T-47D breast
IGROV1 ovarian = tested on: IGROV1 ovarian
MDA-MB-435 = tested on: MDA-MB-435
NCI-H522 lung = tested on: NCI-H522 lung
U251 CNS = tested on: U251 CNS
A549 NSCLC = tested on: A549 NSCLC
KM12 colon = tested on: KM12 colon
CCRF-CEM leukemia = tested on: CCRF-CEM leukemia
SF-268 CNS = tested on: SF-268 CNS
SN12C renal = tested on: SN12C renal
K-562 leukemia = tested on: K-562 leukemia
OVCAR-5 ovarian = tested on: OVCAR-5 ovarian
NCI/ADR-RES ovarian = tested on: NCI/ADR-RES ovarian
TK-10 renal = tested on: TK-10 renal
SK-MEL-28 melanoma = tested on: SK-MEL-28 melanoma
HCC-2998 colon = tested on: HCC-2998 colon
RPMI-8226 leukemia = tested on: RPMI-8226 leukemia
NCI-H460 lung = tested on: NCI-H460 lung
786-0 renal = tested on: 786-0 renal
MCF7 breast = tested on: MCF7 breast
SW-620 colon = tested on: SW-620 colon
HOP-62 NSCLC = tested on: HOP-62 NSCLC
MDA-N = tested on: MDA-N
HT29 colon = tested on: HT29 colon
COLO 205 colon = tested on: COLO 205 colon
NCI-H226 lung = tested on: NCI-H226 lung
OVCAR-8 ovarian = tested on: OVCAR-8 ovarian
OVCAR-4 ovarian = tested on: OVCAR-4 ovarian
SK-MEL-5 melanoma = tested on: SK-MEL-5 melanoma
EKVX NSCLC = tested on: EKVX NSCLC
HL-60(TB) leukemia = tested on: HL-60(TB) leukemia
MOLT-4 leukemia = tested on: MOLT-4 leukemia
UACC-257 melanoma = tested on: UACC-257 melanoma
LOX IMVI melanoma = tested on: LOX IMVI melanoma
HS 578T breast = tested on: HS 578T breast
RXF 393 renal = tested on: RXF 393 renal
A498 renal = tested on: A498 renal
UACC-62 melanoma = tested on: UACC-62 melanoma
BT-549 breast = tested on: BT-549 breast
SK-OV-3 ovarian = tested on: SK-OV-3 ovarian

SMILES: COc1ccc2c(c1)c(CC(=O)O)c(C)n2C(=O)c1ccc(Cl)cc1
- TGI (CAKI-1 renal): > 100000 nM
- TGI (HOP-92 NSCLC): > 100000 nM
- TGI (MDA-MB-231 breast): > 100000 nM
- TGI (HCT-15 colon): > 100000 nM
- TGI (UO-31 renal): > 100000 nM
- TGI (M14 melanoma): > 100000 nM
- TGI (NCI-H23 lung): > 100000 nM
- TGI (SR leukemia): > 100000 nM
- TGI (PC-3 prostate): > 100000 nM
- TGI (SK-MEL-2 melanoma): > 100000 nM
- TGI (OVCAR-3 ovarian): > 100000 nM
- TGI (SF-295 CNS): > 100000 nM
- TGI (ACHN renal): > 100000 nM
- TGI (DU-145 prostate): > 100000 nM
- TGI (SF-539 CNS): > 100000 nM
- TGI (SNB-19 CNS): > 100000 nM
- TGI (MALME-3M melanoma): > 100000 nM
- TGI (HCT-116 colon): > 100000 nM
- TGI (SNB-75 CNS): > 100000 nM
- TGI (T-47D breast): > 100000 nM
- TGI (IGROV1 ovarian): > 100000 nM
- TGI (MDA-MB-435): > 100000 nM
- TGI (NCI-H522 lung): > 100000 nM
- TGI (U251 CNS): > 100000 nM
- TGI (A549 NSCLC): > 100000 nM
- TGI (KM12 colon): > 100000 nM
- TGI (CCRF-CEM leukemia): > 100000 nM
- TGI (SF-268 CNS): > 100000 nM
- TGI (SN12C renal): > 100000 nM
- TGI (K-562 leukemia): > 100000 nM
- TGI (OVCAR-5 ovarian): > 100000 nM
- TGI (NCI/ADR-RES ovarian): > 100000 nM
- TGI (TK-10 renal): > 100000 nM
- TGI (SK-MEL-28 melanoma): > 100000 nM
- TGI (HCC-2998 colon): > 100000 nM
- TGI (RPMI-8226 leukemia): > 100000 nM
- TGI (NCI-H460 lung): > 100000 nM
- TGI (786-0 renal): > 100000 nM
- TGI (MCF7 breast): > 100000 nM
- TGI (SW-620 colon): > 100000 nM
- TGI (HOP-62 NSCLC): > 100000 nM
- TGI (MDA-N): > 100000 nM
- TGI (HT29 colon): > 100000 nM
- TGI (COLO 205 colon): > 100000 nM
- TGI (NCI-H226 lung): > 100000 nM
- TGI (OVCAR-8 ovarian): > 100000 nM
- TGI (OVCAR-4 ovarian): > 100000 nM
- TGI (SK-MEL-5 melanoma): > 100000 nM
- TGI (EKVX NSCLC): > 100000 nM
- TGI (HL-60(TB) leukemia): > 100000 nM
- TGI (MOLT-4 leukemia): > 100000 nM
- TGI (UACC-257 melanoma): > 100000 nM
- TGI (LOX IMVI melanoma): > 100000 nM
- TGI (HS 578T breast): > 100000 nM

SMILES: C[C@]12CC[C@H]3[C@@H](CC[C@]4(O)C[C@@H](O)CC[C@]34/C=N/O)[C@@]1(O)CC[C@@H]2C1=COC(=O)C1
- TGI (CAKI-1 renal): 47.6 nM
- TGI (HOP-92 NSCLC): 1060 nM
- TGI (HCT-15 colon): 450 nM
- TGI (M14 melanoma): 657 nM
- TGI (NCI-H23 lung): 272 nM
- TGI (PC-3 prostate): 532 nM
- TGI (SK-MEL-2 melanoma): 587 nM
- TGI (RXF 393 renal): 91 nM
- TGI (OVCAR-3 ovarian): 349 nM
- TGI (SF-295 CNS): 386 nM
- TGI (ACHN renal): 670 nM
- TGI (DU-145 prostate): 111 nM
- TGI (SF-539 CNS): 221 nM
- TGI (SNB-19 CNS): 2050 nM
- TGI (MALME-3M melanoma): 1090 nM
- TGI (HCT-116 colon): 165 nM
- TGI (SNB-75 CNS): 4440 nM
- TGI (T-47D breast): 975 nM
- TGI (IGROV1 ovarian): 2980 nM
- TGI (MDA-MB-435): 623 nM
- TGI (A498 renal): 583 nM
- TGI (NCI-H522 lung): 371 nM
- TGI (A549 NSCLC): 115 nM
- TGI (KM12 colon): 2510 nM
- TGI (CCRF-CEM leukemia): > 100000 nM
- TGI (SF-268 CNS): 331 nM
- TGI (SN12C renal): 1240 nM
- TGI (K-562 leukemia): 930 nM
- TGI (OVCAR-5 ovarian): 998 nM
- TGI (NCI/ADR-RES ovarian): 604 nM
- TGI (TK-10 renal): 454 nM
- TGI (SK-MEL-28 melanoma): 2060 nM
- TGI (HCC-2998 colon): 687 nM
- TGI (NCI-H460 lung): 166 nM
- TGI (786-0 renal): 362 nM
- TGI (UACC-62 melanoma): 919 nM
- TGI (MDA-N): 1030 nM
- TGI (HT29 colon): 594 nM
- TGI (COLO 205 colon): 1330 nM
- TGI (NCI-H226 lung): 1350 nM
- TGI (OVCAR-8 ovarian): 458 nM
- TGI (OVCAR-4 ovarian): 279 nM
- TGI (SK-MEL-5 melanoma): 241 nM
- TGI (EKVX NSCLC): 344 nM
- TGI (BT-549 breast): 245 nM
- TGI (UACC-257 melanoma): 1620 nM
- TGI (LOX IMVI melanoma): 489 nM
- TGI (HS 578T breast): > 100000 nM
- TGI (SK-OV-3 ovarian): 403 nM
